Laboratory results reported in ChEMBL document CHEMBL1201862, “PubChem BioAssay data set” (2004).
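Compound exposure: 48 hours, 5 concentrations, 96-well plates. GI50 marks 50% less growth.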 Calls of active or inactive are those of the source. Rule as the data show it: active = GI50 up to about 1.1 µM and inactive = higher.

Tests used:
Assay in all cases: NCI-60 cell line screen, 48 h
CCRF-CEM = tested on: CCRF-CEM
M14 = tested on: M14
NCI-H522 = tested on: NCI-H522
LOX IMVI = tested on: LOX IMVI
BT-549 = tested on: BT-549
NCI-H460 = tested on: NCI-H460
NCI/ADR-RES = tested on: NCI/ADR-RES
786-0 = tested on: 786-0
Malme-3M = tested on: Malme-3M
MCF7 = tested on: MCF7
T47D = tested on: T47D
HOP-92 = tested on: HOP-92
TK-10 = tested on: TK-10
OVCAR-3 = tested on: OVCAR-3
RXF 393 = tested on: RXF 393
EKVX = tested on: EKVX
NCI-H226 = tested on: NCI-H226
SN12C = tested on: SN12C
SF-295 = tested on: SF-295
Hs-578T = tested on: Hs-578T
NCI-H23 = tested on: NCI-H23
UO-31 = tested on: UO-31
OVCAR-8 = tested on: OVCAR-8
IGROV-1 = tested on: IGROV-1
COLO 205 = tested on: COLO 205
A549 = tested on: A549
HOP-62 = tested on: HOP-62
RPMI-8226 = tested on: RPMI-8226
SW-620 = tested on: SW-620
ACHN = tested on: ACHN
SF-539 = tested on: SF-539
HL-60 = tested on: HL-60
MOLT-4 = tested on: MOLT-4
KM12 = tested on: KM12
SF-268 = tested on: SF-268
HT-29 = tested on: HT-29
OVCAR-5 = tested on: OVCAR-5
U-251 = tested on: U-251
SR = tested on: SR
MDA-MB-435 = tested on: MDA-MB-435
DU-145 = tested on: DU-145
PC-3 = tested on: PC-3
SK-MEL-5 = tested on: SK-MEL-5
HCT-116 = tested on: HCT-116
MDA-MB-231 = tested on: MDA-MB-231
SNB-75 = tested on: SNB-75
CAKI-1 = tested on: CAKI-1
SNB-19 = tested on: SNB-19
OVCAR-4 = tested on: OVCAR-4
K562 = tested on: K562
SK-MEL-28 = tested on: SK-MEL-28
SK-MEL-2 = tested on: SK-MEL-2
UACC-257 = tested on: UACC-257
HCT-15 = tested on: HCT-15
UACC-62 = tested on: UACC-62
SK-OV-3 = tested on: SK-OV-3
A498 = tested on: A498
HCC 2998 = tested on: HCC 2998
MDA-N = tested on: MDA-N

In the case of O=S(=O)(Nc1ccc2ccc3cccc4ccc1c2c34)c1ccccc1, the GI50 (CCRF-CEM) is reported as 14.1 µM (inactive), the GI50 (M14) is reported as > 100 µM (inactive) and the GI50 (NCI-H522) is reported as 4.27 µM (inactive). The GI50 (LOX IMVI) was 40.6 µM (inactive), the GI50 (BT-549) was > 100 µM (inactive) and the GI50 (NCI-H460) was 37.3 µM (inactive). The GI50 (NCI/ADR-RES) was 35.1 µM (inactive), the GI50 (786-0) was 29 µM (inactive) and the GI50 (Malme-3M) was 38.9 µM (inactive). For the same molecule, the GI50 (MCF7) was 43.4 µM (inactive), the GI50 (T47D) was 28.4 µM (inactive) and the GI50 (HOP-92) was 4.84 µM (inactive). The GI50 (TK-10) was 38.2 µM (inactive), the GI50 (OVCAR-3) was 8.26 µM (inactive) and the GI50 (RXF 393) was > 100 µM (inactive). For the same molecule, the GI50 (EKVX) was > 100 µM (inactive), the GI50 (NCI-H226) was 19.4 µM (inactive) and the GI50 (SN12C) was 15 µM (inactive). For the same molecule, the GI50 (SF-295) was 10.4 µM (inactive), the GI50 (Hs-578T) was 28.1 µM (inactive) and the GI50 (NCI-H23) was 96.6 µM (inactive). For the same molecule, the GI50 (UO-31) was 35.1 µM (inactive), the GI50 (OVCAR-8) was > 100 µM (inactive) and the GI50 (IGROV-1) was 18.7 µM (inactive). The GI50 (COLO 205) was 29.5 µM (inactive), the GI50 (A549) was 52.8 µM (inactive) and the GI50 (HOP-62) was 33.3 µM (inactive). The GI50 (RPMI-8226) was 6.34 µM (inactive), the GI50 (SW-620) was 30.1 µM (inactive) and the GI50 (ACHN) was 36.1 µM (inactive). The GI50 (SF-539) was 25.6 µM (inactive), the GI50 (HL-60) was 37.7 µM (inactive) and the GI50 (MOLT-4) was 8.77 µM (inactive). The GI50 (KM12) was 9.98 µM (inactive), the GI50 (SF-268) was 43.6 µM (inactive) and the GI50 (HT-29) was 49.2 µM (inactive). For the same molecule, the GI50 (OVCAR-5) was > 100 µM (inactive), the GI50 (U-251) was 50.4 µM (inactive) and the GI50 (SR) was 2.67 µM (inactive). The GI50 (MDA-MB-435) was 3.82 µM (inactive), the GI50 (DU-145) was > 100 µM (inactive) and the GI50 (PC-3) was 14.3 µM (inactive). For the same molecule, the GI50 (SK-MEL-5) was 14.1 µM (inactive), the GI50 (HCT-116) was 30.8 µM (inactive) and the GI50 (MDA-MB-231) was 30.8 µM (inactive). The GI50 (SNB-75) was 55.7 µM (inactive), the GI50 (CAKI-1) was 6 µM (inactive) and the GI50 (SNB-19) was 85.5 µM (inactive). The GI50 (OVCAR-4) was > 100 µM (inactive), the GI50 (K562) was 6.7 µM (inactive) and the GI50 (SK-MEL-28) was > 100 µM (inactive). For the same molecule, the GI50 (SK-MEL-2) was 70.5 µM (inactive), the GI50 (UACC-257) was 58.7 µM (inactive) and the GI50 (HCT-15) was 12.9 µM. The GI50 (UACC-62) was 8.95 µM (inactive) and the GI50 (SK-OV-3) was 58.3 µM (inactive).
With COc1cc(OC)cc(Oc2nc3c(N)cc(C(F)(F)F)cc3nc2-c2ccccc2)c1 the GI50 (CCRF-CEM) was 12.8 µM (inactive), the GI50 (M14) was 49.3 µM (inactive) and the GI50 (LOX IMVI) was 20.4 µM (inactive). For the same molecule, the GI50 (BT-549) was > 100 µM (inactive), the GI50 (NCI-H460) was 30.2 µM (inactive) and the GI50 (NCI/ADR-RES) was 52.6 µM (inactive). For the same molecule, the GI50 (786-0) was 55.1 µM (inactive), the GI50 (MCF7) was 8.93 µM (inactive) and the GI50 (T47D) was 3.14 µM (inactive). The GI50 (HOP-92) was > 100 µM (inactive), the GI50 (TK-10) was 60.5 µM (inactive) and the GI50 (RXF 393) was 21.1 µM (inactive). For the same molecule, the GI50 (EKVX) was 25.5 µM (inactive), the GI50 (NCI-H226) was 43.2 µM (inactive) and the GI50 (A498) was > 100 µM (inactive). For the same molecule, the GI50 (SF-295) was 49.5 µM (inactive), the GI50 (Hs-578T) was 80.4 µM (inactive) and the GI50 (NCI-H23) was 92.7 µM (inactive). For the same molecule, the GI50 (UO-31) was > 100 µM (inactive), the GI50 (OVCAR-8) was 46.3 µM (inactive) and the GI50 (IGROV-1) was 21.8 µM (inactive). The GI50 (COLO 205) was 20.1 µM (inactive), the GI50 (HOP-62) was > 100 µM (inactive) and the GI50 (HCC 2998) was 24.3 µM (inactive). For the same molecule, the GI50 (RPMI-8226) was 16.4 µM (inactive), the GI50 (SW-620) was 28.5 µM (inactive) and the GI50 (ACHN) was 28.5 µM (inactive). For the same molecule, the GI50 (SF-539) was 99.3 µM (inactive), the GI50 (HL-60) was 16.6 µM (inactive) and the GI50 (MOLT-4) was 9.27 µM (inactive). For the same molecule, the GI50 (KM12) was 13.8 µM (inactive), the GI50 (SF-268) was 74.8 µM (inactive) and the GI50 (HT-29) was 15.9 µM (inactive). The GI50 (U-251) was 44.8 µM (inactive), the GI50 (SR) was 11.1 µM (inactive) and the GI50 (MDA-MB-435) was 11.4 µM (inactive). For the same molecule, the GI50 (PC-3) was 26.2 µM (inactive), the GI50 (SK-MEL-5) was 37.3 µM (inactive) and the GI50 (HCT-116) was 22.6 µM (inactive). The GI50 (MDA-MB-231) was 28.9 µM (inactive), the GI50 (SNB-75) was 47.9 µM (inactive) and the GI50 (CAKI-1) was 26.9 µM (inactive). The GI50 (SNB-19) was 95.7 µM (inactive), the GI50 (OVCAR-4) was 78.9 µM (inactive) and the GI50 (K562) was 2.71 µM (inactive). For the same molecule, the GI50 (SK-MEL-28) was 61.8 µM (inactive), the GI50 (SK-MEL-2) was 20 µM (inactive) and the GI50 (UACC-257) was 79.3 µM (inactive). The GI50 (HCT-15) was 18.1 µM, the GI50 (UACC-62) was > 100 µM (inactive) and the GI50 (SK-OV-3) was 44.4 µM (inactive).
COc1ccc(-c2cc(=O)c3c(O)c(OC)c(OC)c(OC)c3o2)cc1OC [5-DEMETHYLNOBILETIN] was tested, and the GI50 (CCRF-CEM) was > 100 µM (inactive), the GI50 (M14) was > 100 µM (inactive) and the GI50 (NCI-H522) was 8.97 µM (inactive). The GI50 (LOX IMVI) was 47.8 µM (inactive), the GI50 (BT-549) was 50.9 µM (inactive) and the GI50 (NCI/ADR-RES) was 14.5 µM (inactive). For the same molecule, the GI50 (786-0) was 58.7 µM (inactive), the GI50 (Malme-3M) was > 100 µM (inactive) and the GI50 (MCF7) was > 100 µM (inactive). The GI50 (T47D) was 4.28 µM (inactive), the GI50 (HOP-92) was 3.73 µM (inactive) and the GI50 (TK-10) was 67.1 µM (inactive). The GI50 (OVCAR-3) was > 100 µM (inactive), the GI50 (EKVX) was > 100 µM (inactive) and the GI50 (NCI-H226) was > 100 µM (inactive). For the same molecule, the GI50 (SN12C) was > 100 µM (inactive), the GI50 (A498) was > 100 µM (inactive) and the GI50 (SF-295) was > 100 µM (inactive). For the same molecule, the GI50 (Hs-578T) was 12.6 µM (inactive), the GI50 (NCI-H23) was > 100 µM (inactive) and the GI50 (UO-31) was > 100 µM (inactive). For the same molecule, the GI50 (OVCAR-8) was > 100 µM (inactive), the GI50 (IGROV-1) was 53.1 µM (inactive) and the GI50 (COLO 205) was > 100 µM (inactive). For the same molecule, the GI50 (A549) was > 100 µM (inactive), the GI50 (HOP-62) was 19.5 µM (inactive) and the GI50 (HCC 2998) was > 100 µM (inactive). The GI50 (SW-620) was > 10 µM (inactive), the GI50 (ACHN) was > 100 µM (inactive) and the GI50 (SF-539) was 86.5 µM (inactive). The GI50 (HL-60) was > 100 µM (inactive), the GI50 (MOLT-4) was > 100 µM (inactive) and the GI50 (KM12) was > 100 µM (inactive). The GI50 (SF-268) was 10.1 µM (inactive), the GI50 (HT-29) was > 100 µM (inactive) and the GI50 (OVCAR-5) was > 100 µM (inactive). For the same molecule, the GI50 (U-251) was 39.7 µM (inactive), the GI50 (SR) was > 100 µM (inactive) and the GI50 (DU-145) was > 100 µM (inactive). The GI50 (PC-3) was > 100 µM (inactive), the GI50 (SK-MEL-5) was 27.4 µM (inactive) and the GI50 (HCT-116) was > 100 µM (inactive). For the same molecule, the GI50 (MDA-MB-231) was > 100 µM (inactive), the GI50 (CAKI-1) was > 100 µM (inactive) and the GI50 (SNB-19) was > 100 µM (inactive). For the same molecule, the GI50 (OVCAR-4) was > 100 µM (inactive), the GI50 (MDA-N) was > 100 µM (inactive) and the GI50 (K562) was > 100 µM (inactive). For the same molecule, the GI50 (SK-MEL-28) was > 100 µM (inactive), the GI50 (SK-MEL-2) was 91.2 µM (inactive) and the GI50 (UACC-257) was > 100 µM (inactive). The GI50 (HCT-15) was greater than 100 µM, the GI50 (UACC-62) was > 100 µM (inactive) and the GI50 (SK-OV-3) was 20.4 µM (inactive).
